Measurements from ChEMBL document CHEMBL4118167, “Discovery of bicyclo[3,3,1]non-2-ene as a novel skeleton for HIF-1 inhibitors” (Bioorg Med Chem, 2018).
Activity calls are given as the source filed them. The calls are words filed in the database; no cut-off is given here.

What was measured:
Assay type in all cases: cell-based
HeLa = experiment: Cytotoxicity against human HeLa cells at 0.3 to 100 uM
[1] = target: T1, HIF1A/p300/CREB-binding protein (Homo sapiens, UniProt Q09472+Q16665+Q92793); experiment: Inhibition of HIF-1alpha/p300/CBP (unknown origin) transcriptional activity expressed in human HeLa cells expressing HRE-Luc/CMV-Luc after 12 hrs under hypoxic condition by dual luciferase reporter gene assay
[2] = target: T1, HIF1A/p300/CREB-binding protein; experiment: Inhibition of HIF-1alpha/p300/CBP PPI in human HeLa cells assessed as […] of HIF-1alpha accumulation at 3 to 30 uM after 12 hrs under hypoxic condition by Western blot analysis
[3] = target: T1, HIF1A/p300/CREB-binding protein; experiment: Inhibition of HIF-1alpha/p300/CBP PPI in human HeLa cells assessed as HIF-1alpha mRNA levels by measuring HIF-1alpha to beta2-microglobulin ratio at 30 uM after 12 hrs under hypoxic condition by qPCR analysis (reference value: 0.90 +/- 0.23)
[4] = target: T1, HIF1A/p300/CREB-binding protein; experiment: Inhibition of HIF-1alpha/p300/CBP PPI in human HeLa cells assessed as reduction in HIF-1alpha proteasomal degradation after 12 hrs under hypoxic condition in presence of proteasome inhibitor MG132 by Western blot analysis

| Structure (SMILES) | IC50 [1] | inhibition [2] | Ratio [3] | inhibition [4] | Activity (HeLa) |
| --- | --- | --- | --- | --- | --- |
| OCc1ccc(-c2nn(Cc3ccccc3)c3ccccc23)o1 | – | – | – | – | Non-Toxic |
| CC(C)CCOC(=O)C1=C(O)CC2(O)CCCC1C2 (configuration not stated) | > 100 µM | – | – | – | Non-Toxic |
| O=C(OCc1ccccc1)C1=C(O)CC2(O)CCCC1C2 (configuration not stated) | > 100 µM | – | – | – | Non-Toxic |

Further lines, with some results ahead:

| IC50 [1] | inhibition [2] | Ratio [3] | inhibition [4] | Structure (SMILES) | Activity (HeLa) |
| --- | --- | --- | --- | --- | --- |
| 3 µM | inactive | 1.2 | Dose-dependent effect | CC(C)CC(=O)OC1=C(C(=O)OCc2ccccc2)C2CCCC(OC(=O)CC(C)C)(C1)C2 (configuration not stated) | Non-Toxic |
| 6.3 µM | – | – | – | CC(C)CCOC(=O)C1=C(OC(=O)CC(C)C)CC2(OC(=O)CC(C)C)CCCC1C2 (configuration not stated) | Non-Toxic |
